The text below walks through data of PubChem BioAssay AID1918991 (Molecular Pharmacology Branch, DTP, NCI, 2023).

Values joined by “and” are separate entries in the source; they are usually repeats but may differ in a detail not shown here. Identical values can stand only once.
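Note: luminescent signal used as a stand-in for viable cell amount; spheroids exposed to compounds for seven days before the viability read; 100% = DMSO vehicle control wells.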

In the first assay the test system is 186277-243-T-J2-PDC complex spheroid growth. The assay is described as follows: Anticancer human tumor 186277-243-T-J2-PDC patient-derived colon adenocarcinoma cell line growth inhibition [AhR]. The note with it: compound 0.3 µM; stronger effect = lower value. From the text:
Multicellular complex tumor spheroid response to aryl hydrocarbon receptor antagonists in combination with a variety of drugs and investigational agents in selected tumor cell lines
The current study was undertaken to assess response to aryl hydrocarbon receptor antagonists in combination with standard-of-care drugs and investigational agents in solid tumor complex spheroid models. Complex spheroids include a stromal component modeled by human endothelial cells (HUVEC) and fibroblasts modeled by human mesenchymal stem cells (MSCs). The concentration ranges selected for each drug and investigational agent were based upon clinically achievable concentrations if the clinical Cmax of the agent was known.
Compounds. The drugs and investigational agents: BAY 2416964 (NSC825713), GNF351 (NSC835774), CH-223191 (NSC835775), CPI-455 (NSC825282), aza-TdCyd (NSC777586), decitabine (NSC127716), belinostat (NSC758774), entinostat (NSC756642), pevonedistat (NSC761192), tazemetostat (NSC777109), talazoparib (NSC765396), olaparib (NSC753686), selinexor (NSC780203), nedisertib (M3814, NSC802822), bortezomib (NSC756655), venetoclax (NSC766270), doxorubicin (NSC123127), elimusertib (BAY189344, NSC800525), ceralasertib (AZD6738, NSC777638), TAK-243 (NSC785004), alisertib (NSC759677), etoposide (NSC141540), topotecan (NSC609699), eribulin (NSC707389), gemcitabine (NSC613327), carboplatin (NSC241240), cisplatin (NSC119875), and SN-38 (NSC673596) were obtained from the National Cancer Institute (NCI) Developmental Therapeutics Program Chemical Repository (32). The FDA-approved anticancer drug set is available from the Developmental Therapeutics Program at https://dtp.cancer.gov/organization/dscb/obtaining/available plates.htm. […] The stock solutions were prepared in dimethyl sulfoxide (DMSO, Sigma-Aldrich, St. Louis, MO, cat. D2650), except for the platinum compounds which were prepared in saline (Quality Biological, Gaithersburg, MD, cat. 114-055-101), at 800-fold the tested concentration and stored at -70 degrees C prior to their use. All drugs and investigational agents were tested over a range starting from a high concentration at or near the clinical Cmax and decreasing in half-log increments. If the clinical Cmax for an agent had not been determined, the highest concentration tested was 10 microM (Table 1).
Cell Culture. All cells were maintained in an incubator at 37 degrees C and 5% CO2 with 95% humidity. The PDC lines were cultured according to standard operating procedures established by the NCI PDMR (https://pdmr.cancer.gov). Briefly, all PDCs were thawed and cultured in Matrigel-coated flasks prepared with a working solution of 1X Ham's F-12 nutrient mix, without supplementation (Invitrogen, Waltham, MA, cat. 11765054), 100 U/mL penicillin-streptomycin (Invitrogen, cat. 15140122), and 2.5% Matrigel (Corning Inc., Corning, NY, cat. 354248) for the first three passages. All PDCs were cultured in complete DMEM/F-12 media containing advanced DMEM/F-12 (Invitrogen, cat. 12634028), 4.9% defined fetal bovine serum, heat inactivated (HyClone Laboratories Inc., Logan, UT, cat. SH30070.03HI), 389 ng/mL hydrocortisone (Sigma-Aldrich, cat. H4001), 9.7 ng/mL human EGF recombinant protein (Invitrogen, cat. PHG0313), 23.4 microg/mL adenine (Sigma-Aldrich, cat. A2786), 97.3 U/mL penicillin-streptomycin (Invitrogen, cat. 15140122), 1.9 mM L-glutamine (Invitrogen, cat. 25030081), and 9.7 microM Y-27632 dihydrochloride (Tocris Bioscience, Bristol, United Kingdom, cat. 1254). The PDCs were cultured in complete DMEM/F12 media without 10 microM Y-27632 dihydrochloride for at least two passages prior to the screen. The established cell lines NCI-H1341 and […] were cultured in DMEM/F-12, HEPES (Invitrogen, cat. 11330032), 5% defined fetal bovine serum (HyClone Laboratories Inc., cat. SH30070.03), ITS premix universal culture supplement [insulin (5 microg/mL), transferrin (5 microg/mL), and selenious acid (5 ng/mL)] […]
As usually defined, the viability, T/C is the result in the treated group divided by that in the control group, in per cent. Regarding `Nc1ncn(C2CC(O)C(CO)S2)c(=O)n1` (stereo unspecified), the viability, T/C was 102% and 117% and 26.4%.

Turning to `O=C(C=Cn1cnc(-c2cc(C(F)(F)F)cc(C(F)(F)F)c2)n1)NNc1cnccn1`, the viability, T/C was 74.7% and 80.7% and 10.9%.

The assay is the same for the next values; noted with them: compound 0.316 µM; stronger effect = lower value.
Turning to `CC1(C)CCC(CN2CCN(c3ccc(C(=O)NS(=O)(=O)c4ccc(NCC5CCOCC5)c([N+](=O)[O-])c4)c(Oc4cnc5[nH]ccc5c4)c3)CC2)=C(c2ccc(Cl)cc2)C1`, the viability, T/C was 93.9% and 119% and 92.1%.

On to `CC1COCCN1c1cc(-c2ccnn2C)c2ccnc(-c3ccn[nH]3)c2n1` (stereo unspecified), for which the viability, T/C was 8.06% and 11.5% and 3.15%.

Take `CC1COCCN1c1cc(C2(S(C)(=N)=O)CC2)nc(-c2ccnc3[nH]ccc23)n1` (stereo unspecified): the viability, T/C was 99.5% and 92% and 73%.

As for `COc1cc(C2c3cc4c(cc3C(OC3OC5COC(C)OC5C(O)C3O)C3COC(=O)C23)OCO4)cc(OC)c1O` (stereo unspecified), the viability, T/C was 118% and 44.4% and 142%.

With `COc1cc(Nc2ncc3c(n2)-c2ccc(Cl)cc2C(c2c(F)cccc2OC)=NC3)ccc1C(=O)O`, the viability, T/C was 74.4% and 119% and 20.1%.

Take `NS(=O)(=O)OCC1CC(n2ccc3c(NC4CCc5ccccc54)ncnc32)CC1O` (stereo unspecified): the viability, T/C is 89.2% and 88.5% and 60.5%.

Take `Nc1ccccc1NC(=O)c1ccc(CNC(=O)OCc2cccnc2)cc1`: the viability, T/C was 76.2% and 99.5% and 68.8%.

Regarding `Nc1ccn(C2OC(CO)C(O)C2(F)F)c(=O)n1` (stereo unspecified), the viability, T/C was 8.12% and 4.79% and 17.4%.

Consider `Nc1ncn(C2CC(O)C(CO)O2)c(=O)n1` (stereo unspecified), for which the viability, T/C was 137% and 110% and 65.2%.

In the case of `O=C(C=Cc1cccc(S(=O)(=O)Nc2ccccc2)c1)NO`, the viability, T/C is 99.1% and 95.8% and 46.9%.

With `O=C(c1cc(Cc2n[nH]c(=O)c3ccccc23)ccc1F)N1CCN(C(=O)C2CC2)CC1`, the viability, T/C is 114% and 94.5% and 98.3%.

The same assay, now with this note: compound 0.949 µM; stronger effect = lower value.
Regarding `CCN(c1cc(-c2ccc(CN3CCOCC3)cc2)cc(C(=O)NCc2c(C)cc(C)[nH]c2=O)c1C)C1CCOCC1`, the viability, T/C is 101% and 112% and 91.5%.

Turning to `O=C(C=Cn1cnc(-c2cc(C(F)(F)F)cc(C(F)(F)F)c2)n1)NNc1cnccn1`, the viability, T/C is 12.6% and 17.4% and 2.87%.

Still in this assay, the particulars now being: compound 1 µM; stronger effect = lower value.
Take `CC1(C)CCC(CN2CCN(c3ccc(C(=O)NS(=O)(=O)c4ccc(NCC5CCOCC5)c([N+](=O)[O-])c4)c(Oc4cnc5[nH]ccc5c4)c3)CC2)=C(c2ccc(Cl)cc2)C1`: the viability, T/C was 98.4% and 99.1% and 101%.

`CC1COCCN1c1cc(-c2ccnn2C)c2ccnc(-c3ccn[nH]3)c2n1` (stereo unspecified): the viability, T/C was 5.02% and 8.23% and 2.74%.

As for `CC1COCCN1c1cc(C2(S(C)(=N)=O)CC2)nc(-c2ccnc3[nH]ccc23)n1` (stereo unspecified), the viability, T/C is 106% and 89.6% and 47.1%.

Consider `COc1cc(C2c3cc4c(cc3C(OC3OC5COC(C)OC5C(O)C3O)C3COC(=O)C23)OCO4)cc(OC)c1O` (stereo unspecified), for which the viability, T/C was 58.8% and 22.6% and 97.1%.

As for `COc1cc(Nc2ncc3c(n2)-c2ccc(Cl)cc2C(c2c(F)cccc2OC)=NC3)ccc1C(=O)O`, the viability, T/C is 69.7% and 114% and 18.9%.

In the case of `COc1cccc2c1C(=O)c1c(O)c3c(c(O)c1C2=O)CC(O)(C(=O)CO)CC3OC1CC(N)C(O)C(C)O1` (stereo unspecified), the viability, T/C is 0.9% and 5.52% and 0.26%.

Consider `NS(=O)(=O)OCC1CC(n2ccc3c(NC4CCc5ccccc54)ncnc32)CC1O` (stereo unspecified), for which the viability, T/C is 45.8% and 44.2% and 18.4%.

On to `Nc1ccccc1NC(=O)c1ccc(CNC(=O)OCc2cccnc2)cc1`, for which the viability, T/C was 86.5% and 92.2% and 37%.

Regarding `Nc1ccn(C2OC(CO)C(O)C2(F)F)c(=O)n1` (stereo unspecified), the viability, T/C is 8.52% and 4.4% and 18.1%.

Take `Nc1ncn(C2CC(O)C(CO)O2)c(=O)n1` (stereo unspecified): the viability, T/C is 133% and 121% and 49.5%.

Take `O=C(C=Cc1cccc(S(=O)(=O)Nc2ccccc2)c1)NO`: the viability, T/C is 55.2% and 91.8% and 13.2%.

With `O=C(c1cc(Cc2n[nH]c(=O)c3ccccc23)ccc1F)N1CCN(C(=O)C2CC2)CC1`, the viability, T/C was 109% and 92.3% and 85%.

Still in this assay, the particulars now being: compound 3 µM; stronger effect = lower value.
As to `CCN(c1cc(-c2ccc(CN3CCOCC3)cc2)cc(C(=O)NCc2c(C)cc(C)[nH]c2=O)c1C)C1CCOCC1`, the viability, T/C is 106% and 104% and 89.5%.

As for `O=C(C=Cn1cnc(-c2cc(C(F)(F)F)cc(C(F)(F)F)c2)n1)NNc1cnccn1`, the viability, T/C was 4.45% and 8.73% and 1.48%.

The assay is the same for the next values; noted with them: compound 3.16 µM; stronger effect = lower value.
As to `CC1(C)CCC(CN2CCN(c3ccc(C(=O)NS(=O)(=O)c4ccc(NCC5CCOCC5)c([N+](=O)[O-])c4)c(Oc4cnc5[nH]ccc5c4)c3)CC2)=C(c2ccc(Cl)cc2)C1`, the viability, T/C is 85.5% and 109% and 84.2%.

Regarding `CC1COCCN1c1cc(C2(S(C)(=N)=O)CC2)nc(-c2ccnc3[nH]ccc23)n1` (stereo unspecified), the viability, T/C was 67.5% and 37.4% and 6.44%.
